For assay [1], the target named is SARS-CoV-2 RBD (RBD Wuhan-1) binding to ACE2 (Severe acute respiratory syndrome coronavirus 2, UniProt P0DTC2).
The subject of assay [2] is B.1.617.2 pseudovirus, entry into 293T-ACE2-TMPRSS2 cells. Format: cell-based, SARS-CoV-2.
Assay [3] has as its system B.1.617.1 pseudovirus, entry into 293T-ACE2-TMPRSS2 cells. Format: cell-based, SARS-CoV-2. The settings on record: for IC50: read-out: IC50, B.1.617.1 PV transduction assay.
The test system of assay [4] is SARS-CoV-2 variant pseudoviruses (D614G, P.1., B 1.1.7, B.1.429 and B1.351), entry into 293T-ACE2-TMPRSS2 cells. It counts as cell-based.

A word on the IC50: it is the concentration at which inhibition is half-maximal.

Values joined by “and” are separate entries in the source; they are usually repeats but may differ in a detail not shown here. Equal values may be shown once. Where a name gives a salt, the structure may show the parent alone.

As to `CC(C)(S)C(=O)N[C@@H](CS)C(=O)O` [Bucillamine], the “Inhibition of binding of RBD Wuhan-1 to ACE2 (in words)” value (shortened to “Inhibition of binding … (in words)”) in assay [1] is “much stronger effects”. Also, in assay [2], the “Increase of IC50 for B.1.617.2 versus B.1.617.1” value (“Increase of IC50” below) is given as “approximately two-fold”.
`NCCS` [Cysteamine]: in assay [1], the “Inhibition of binding … (in words)” value is “much stronger effects”. Moreover, in assay [3], the concentration for half-maximal inhibition (IC50) is about 1000 µM. Further, in assay [2], the “Increase of IC50” value was 3–15 fold. For the same compound, in assay [4], the “Entry of SARS-CoV-2 PV variants, cells pretreated” value is reported as “not affected” and the “Potency against variant PV entry (in words)” value was “less potent against the other variants tested”.
Consider `N[C@@H](CS)C(=O)O` [L-cysteine], for which the “Inhibition of B.1.617.1 PV entry (in words)” value in assay [3] is listed as “intermediate potency”.
As to `O=S(=O)(O)CCS` [Mesna, 2-mercaptoethane sulfonate, sodium salt], the “Inhibition of binding … (in words)” value in assay [1] is listed as “much stronger effects”. In assay [2], the “IC50, B.1.617.2 PV transduction assay” value was “did not achieve an IC50 value at the doses tested”.
Turning to `CC(C)(S)[C@@H](N)C(=O)O` [Penicillamine], the “Inhibition of binding … (in words)” value in assay [1] is on record as “relatively weak inhibitory effects”.
For `O=C(O)[C@@H](S)[C@@H](S)C(=O)O` [Succimer, Dimercaptosuccinic acid], the “Inhibition of binding … (in words)” value in assay [1] is given as “relatively weak inhibitory effects”.
With `CO[C@H]1O[C@H](CS)[C@H](O)[C@H](O)[C@H]1O` [TDG, methyl 6-thio-6-deoxy-α-D-galactopyranoside], in assay [3], the “Potency higher than compounds with similarly high pKa values (NAC, Mesna)” value came to 5 fold. Further, the “Increase of IC50” value in assay [2] was 3–15 fold.
Take `NCCCNCCS` [WR-1065]: the “Inhibition of binding … (in words)” value in assay [1] is “much stronger effects”. Further, the IC50 in assay [3] was about 1000 µM; in assay [2] (read-out: IC50, B.1.617.2 PV transduction assay) it was 6000 µM and 5000 to 15000 µM. Besides, in assay [2], the “Increase of IC50” value is 3–15 fold.

The record behind these values is article PMC7743076 (bioRxiv, 2021).
